Results published in patent US6495588B2, “Scytonemin and methods of using thereof” (The Regents of the University of California, priority 2000, dated 2002).
Read-outs that look alike come from different tables or passages of the source.

Assays:
rhPKCβ2 = molecular target: T1, rhPKCβ2 (Homo sapiens, UniProt P05771); assay: PKC activity assay; format: biochemical; conditions: 0.01 μM ATP; read-out: IC50 rhPKC activity
T1 construct: made in house; host or cells: baculovirus expression system
Procedure: RhPKCβ2 was expressed in a baculovirus expression system. Kinase reactions were conducted in 50 μl comprising 0.5 μg rhPKC diluted in 2 mM Tris, and 100 μM EGTA and reaction buffer comprising substrate (0.9 mM EGTA, 1.1 mM CaCl2, 0.01 mg/ml glycogen synthase peptide (H-[…]OH) (Bachem, King of Prussia, Pa.), 40 μg/ml L-α-Phosphatidyl-L-serine, 1 μg/ml 1,3-Diolen, 10 mM MgCl2, pH 7.5). To assess PKA activity, kinase reactions were conducted in 50 μl comprising 0.5 μg PKA (from bovine heart supplied by Sigma, St. Louis, Mo.) diluted in 10 mM MOPS, pH 6.5 and reaction buffer comprising substrate (50 mM MOPS, pH 6.5, 10 mM MgCl2, 0.1 mg/ml Histone-IIA (Sigma, St. Louis, Mo.), 1 μM cAMP). An ATP solution (0.01 μM ATP and 0.5 μCi of [γ^33-P] ATP) was then added to the wells in both assay systems. Inhibitors were added at the indicated concentrations with a final DMSO concentration of 10%. Reactions were allowed to proceed for 20 minutes at 37° C. and were stopped with 25 mM EDTA. The reactions were spotted onto filter paper, washed four times in a beaker comprising 75 mM phosphoric acid and rinsed with acetone. Filters were dried and put in scintillation vials with fluid and counted.

[1] = test system: CAP-induced mouse ear edema; assay: Capsaicin (CAP)-induced mouse ear edema assay; format: in vivo
Procedure: (§1) Various dilutions of test compounds were topically applied in acetone to the inside and outside surfaces of the left ears of mice in a solution comprising 0.1 μg RTX or 250 μg CAP per ear. A control, acetone, was applied to all right ears. After a 30 minute incubation, the mice were sacrificed, the ears removed, and bores taken and weighed.
(§2) For systemic studies, the test compounds were administered by intraperitoneal injection in a vehicle comprising 20% propylene glycol, 80% saline and 3 drops TWEEN-20 30 minutes or 1 hour prior to topical application of RTX or CAP. Control animals were injected with vehicle only. 0.1 μg RTX or 250 μg CAP was applied to the left ears and acetone was applied to the right ears. After 30 minutes of incubation, the mice were scarified, ears removed and bores taken and weighed.
(§3) Edema was measured by subtracting the weight of the right ear (control) from the weight of the left ear. The results were recorded as % decrease (inhibition) or % increase (potentiation) in edema relative to the control group edema.

[2] = test system: RTX-induced mouse ear edema; assay: Resiniferatoxin (RTX)-induced mouse ear edema assay; format: in vivo; conditions: systemic
Procedure: as §1, §2, §3

GST-PLK1 = molecular target: T2, GST-PLK1 (Homo sapiens, UniProt P53350); assay: GST-Plk kinase activity kinetic assay (phosphorylation of GST-cdc25C); format: biochemical; conditions: for reduction of GST-PLK1 activity: preincubation 0-45 minutes; for Ki: 10-25 μM ATP, 2, 4, 6 μM SCY
T2 construct: made in house
T2 sequence (P53350 whole entry): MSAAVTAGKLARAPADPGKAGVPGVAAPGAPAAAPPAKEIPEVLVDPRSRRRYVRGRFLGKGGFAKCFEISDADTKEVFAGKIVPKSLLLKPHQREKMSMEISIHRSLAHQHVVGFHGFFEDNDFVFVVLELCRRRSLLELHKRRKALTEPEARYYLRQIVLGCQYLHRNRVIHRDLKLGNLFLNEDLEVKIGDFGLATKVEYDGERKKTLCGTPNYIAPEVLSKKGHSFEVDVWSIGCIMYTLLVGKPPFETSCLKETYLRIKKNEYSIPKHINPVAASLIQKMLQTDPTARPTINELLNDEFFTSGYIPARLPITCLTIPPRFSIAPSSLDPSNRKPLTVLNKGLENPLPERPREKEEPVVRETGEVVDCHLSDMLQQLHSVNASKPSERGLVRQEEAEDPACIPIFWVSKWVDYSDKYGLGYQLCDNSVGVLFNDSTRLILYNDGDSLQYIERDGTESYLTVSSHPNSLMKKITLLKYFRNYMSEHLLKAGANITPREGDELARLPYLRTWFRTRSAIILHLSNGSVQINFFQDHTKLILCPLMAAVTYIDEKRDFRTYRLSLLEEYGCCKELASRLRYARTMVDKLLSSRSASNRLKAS
Procedure: GST-PLK1, and GST-cdc25C were synthesized as described in Roshak et al. (2000), which is herein incorporated by reference. GST-PLK1 and GST-cdc25C were purified to 20% and 60% purity as determined by SDS-PAGE analysis and Coomassie Blue staining. The remaining impurities were determined to be free GST.
Kinase reactions comprised 350 nM GST-cdc25C, 0.5 μCi [^33P]-γATP (NEN, Cambridge, Mass.), 10 μM unlabelled ATP (Sigma, St. Louis, Mo.), 20 nM GST-PLK1 in kinase reaction buffer comprising 20 mM HEPES (pH 7.4), 50 mM KCl, 10 mM MgCl2, 1 mM EGTA, 0.5 mM DTT. Enzyme and substrates were diluted individually in kinase buffer and the PLK1 solution was pre-activated by incubating at 37° C. for 1 hour prior to its addition to the assay as described in Roshak et al. (2000).
50 μl reactions were conducted in 96 well polypropylene plates. First, 1 nM to 10 μM SCY dissolved in 100% DMSO was added, followed by the addition of enzyme and substrate to give a final concentration of 4% DMSO. The reactions were initiated by the addition of ATP. The reactions progressed for 60 minutes at 37° C., and were then stopped with 25 mM EDTA and 1 mM unlabeled ATP. The samples were transferred to 96 well 0.45 μm millipore filtration plates (Millipore, Bedford, Mass.), the proteins were precipitated with a 10% TCA, 5% sodium pyrophosphate solution (TCA-NaPP), and the plates were filtered using a Millipore microplate filtration unit (Millipore, Bedford, Mass.). The plates were washed twice with the TCA-NaPP solution, twice with 75 mM phosphoric acid, and twice with PBS. After drying at room temperature, scintillation fluid was added to the plate, and [^33P]-γATP incorporation was measured on a Packard Top-Count.
Analysis by autoradiography was performed as described in Roshak et al. (2000). Briefly, GST-PLK1 (20 nM/assay), […], 1 μCi [^32P]-γATP, and 350 nM GST-cdc25C were incubated in microcentrifuge tubes (50 μl/assay) for 60 minutes at 37° C. in the presence of 1 to 10 μM SCY and 10 μM hymenialdisine. The reactions were terminated with 25 mM EDTA, separated by SDS-PAGE and GST-cdc25C phosphorylation was visualized using Imagequest (Molecular Dynamics, Sunnyvale, Calif.). 10 μM hymenialdisine served as a positive control for each assay described above.
To determine whether SCY was acting as and ATP analogue, ATP competition assays were conducted as described above in the presence of increasing concentrations, 10, 15, 20, and 25 μM, of unlabeled ATP and three concentrations of SCY, 2, 4, and 6 μM SCY. The results were plotted using the Grafit statistical analysis program.
To ascertain if inhibition of GST-PLK1, activity by SCY is time dependent, 3 μM and 10 μM SCY were pre-incubated with both enzyme and substrate for 0, 15, 30, and 45 minutes at room temperature. At the end of the pre-incubation period, ATP was added to initiate the activity assay. […] GST-PLK1, activity was reduced by about 58% and about 93% after preincubation with 3 μM and 10 μM SCY, respectively, which is consistent with the levels shown in FIG. 3.

T1 sequence (P05771 1-673 isoform P05771-2): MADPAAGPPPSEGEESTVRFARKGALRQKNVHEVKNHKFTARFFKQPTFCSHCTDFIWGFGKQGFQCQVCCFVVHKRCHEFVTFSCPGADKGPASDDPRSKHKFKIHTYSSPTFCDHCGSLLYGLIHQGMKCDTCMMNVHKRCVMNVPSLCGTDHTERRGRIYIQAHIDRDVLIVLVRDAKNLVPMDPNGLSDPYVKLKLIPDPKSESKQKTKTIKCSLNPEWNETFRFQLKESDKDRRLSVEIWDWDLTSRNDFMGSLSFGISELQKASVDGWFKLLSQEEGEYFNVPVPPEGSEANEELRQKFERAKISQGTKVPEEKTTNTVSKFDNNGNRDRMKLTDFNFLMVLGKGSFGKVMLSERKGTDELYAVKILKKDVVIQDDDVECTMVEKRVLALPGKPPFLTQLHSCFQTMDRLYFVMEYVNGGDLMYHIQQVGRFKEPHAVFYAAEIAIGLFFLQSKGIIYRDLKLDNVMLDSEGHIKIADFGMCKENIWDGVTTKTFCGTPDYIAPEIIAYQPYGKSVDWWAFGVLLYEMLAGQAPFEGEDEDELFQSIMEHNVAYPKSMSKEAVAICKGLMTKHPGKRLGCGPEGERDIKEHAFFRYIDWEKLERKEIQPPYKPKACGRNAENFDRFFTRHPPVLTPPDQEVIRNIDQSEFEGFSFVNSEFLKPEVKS

## scytonemin
rhPKCβ2
  IC50: ~3000 nM
[1]; systemic 10 mg/kg, 30 minutes before topical CAP
  inhibition of edema: no inhibition of edema
[1]; topical 500 μg/ear against 250 μg/ear CAP
  inhibition of edema: ~24%
[2]; 25 mg/kg
  inhibition of topical RTX-induced mouse ear edema: 15%
[2]; 50 mg/kg
  inhibition of topical RTX-induced mouse ear edema: 18%
[2]; 150 mg/kg
  inhibition of topical RTX-induced mouse ear edema: 47%
GST-PLK1; 3 μM SCY
  reduction of GST-PLK1 activity: about 58%
GST-PLK1; 3 μM and 10 μM, preincubation 0, 15, 30, 45 minutes
  time dependence of GST-PLK1 inhibition: not time dependent
GST-PLK1; 10 μM SCY
  reduction of GST-PLK1 activity: about 93%
GST-PLK1; 10 μM unlabelled ATP, 60 minutes at 37° C., IC50±S.E.M., read-out: IC50 for inhibition of GST-PLK1 phosphorylation of GST-cdc25C
  IC50: 1950 ± 70 nM
GST-PLK1; ATP competition, read-out: Ki when fitted as an uncompetitive inhibitor
  Ki: 2300 ± 1900 nM
GST-PLK1; ATP competition, read-out: Ki when fitting the data as a competitive inhibitor
  Ki: 3000 ± 1900 nM
GST-PLK1; ATP competition, double-reciprocal plot
  mechanism of inhibition of GST-PLK1: mixed inhibitor
GST-PLK1; in the presence of 10 μM SCY
  GST-cdc25C phosphorylation by GST-PLK1 (phosphorimage): virtually no phosphorylated GST-cdc25C detectable
